From patent publication US20120129818A1, “Compositions and Methods for Treatment of Cardiovascular Disease” (priority 2009, published 2012)
pKi: −log10 of the molar value.

Legend:
[1] = biological target: T1, human MPO (Homo sapiens, UniProt P05164); experiment: Myeloperoxidase (MPO) activity assay with tetramethyl benzidine (TMB) substrate; format: biochemical; settings: for pKi: 50 mM sodium acetate buffer pH 5.6, read-out: Ki (inhibitory values of MPO)
T1 construct: purchased Sigma-Aldrich
Source text: Various methods of measuring a reduction in MPO activity are known to those of ordinary skill in the art and can be used in accordance with the present invention. For example, in one embodiment, MPO activity can be measured by combining an amount of an MPO enzyme, or a sample containing an MPO enzyme, with H2O2, a tetramethyl benzidine (TMB) substrate, and an MPO inhibitor (e.g., a compound of the present invention), and then measuring the optical density of the resulting product.
Typically, the reaction mixture (200 μl) contained 20 mU human MPO (Sigma-Aldrich, St. Louis, Mo.), 400 nmol H2O2, 1.6 μmol of TMB, and varying concentrations of methylenedioxyphenyl ferulate (Formula (II)) or ferulylproline (Formula (XVI)).
The reaction was performed in a volume of 200 μl with 50 mM sodium acetate buffer at pH 5.6. The reaction was initiated by adding MPO and the optical density of the product formed was then read at 650 nm in a microplate reader at various time points.

[2] = tested on: xanthine/xanthine oxidase; experiment: Superoxide mediated cytochrome c reduction catalyzed by xanthine/xanthine oxidase; format: biochemical; settings: different concentrations of inhibitor, 549 nm (FIG. 7)
Protocol: The reaction mixture contained 250 μL of 5 mM hypoxanthine (1.25 mM final concentration), 100 μL of cytochrome c in buffer, 10 μL of xanthine oxidase enzyme and different concentrations of inhibitor. The final volume was made up to 1 mL with phosphate buffer. The oxidation was monitored by scanning wavelengths between 500 nm to 600 nm with five measurements. The cycle scanning time was 30 seconds.

[3] = biological target: T2, MPO (Homo sapiens, UniProt P05164); experiment: Analysis of whether the compounds act as MPO substrates (UV-Visible spectrum, TLC); format: biochemical
T2 sequence (P05164 49-745): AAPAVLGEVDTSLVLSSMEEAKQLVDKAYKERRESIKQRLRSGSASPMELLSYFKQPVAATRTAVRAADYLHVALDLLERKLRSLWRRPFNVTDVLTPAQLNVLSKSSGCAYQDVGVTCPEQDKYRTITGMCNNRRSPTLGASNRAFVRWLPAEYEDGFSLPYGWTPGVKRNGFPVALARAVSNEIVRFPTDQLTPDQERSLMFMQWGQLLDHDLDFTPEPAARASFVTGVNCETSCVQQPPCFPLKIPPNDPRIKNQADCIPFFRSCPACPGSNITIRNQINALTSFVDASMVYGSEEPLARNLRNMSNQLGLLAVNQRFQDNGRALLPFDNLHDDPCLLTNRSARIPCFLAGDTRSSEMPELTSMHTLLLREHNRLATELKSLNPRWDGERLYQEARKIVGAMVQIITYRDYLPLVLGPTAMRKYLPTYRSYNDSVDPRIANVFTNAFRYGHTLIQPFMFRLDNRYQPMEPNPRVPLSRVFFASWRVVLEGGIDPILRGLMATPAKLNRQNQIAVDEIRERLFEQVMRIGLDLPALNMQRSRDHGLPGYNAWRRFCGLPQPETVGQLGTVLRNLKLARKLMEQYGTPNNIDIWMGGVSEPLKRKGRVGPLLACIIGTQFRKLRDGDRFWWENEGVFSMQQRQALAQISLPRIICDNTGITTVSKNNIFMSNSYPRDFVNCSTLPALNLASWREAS
Protocol: It is known that MPO acts on a variety of substrates and, as such, it was thought that it may be theoretically possible that methylenedioxyphenyl ferulate (Formula (II)) and ferulylproline (Formula (XVI)) could be acting as MPO substrates and competitively masking the formation of products from the added substrates in the above-described experiments. […] In these experiments, a reaction mixture was produced that contained 720 μL of sodium acetate buffer, 100 μL of 100 mM H2O2, 100 μL of MPO enzyme with added compounds of the present invention, and a total volume made up to 1 mL. Upon analysis of this reaction mixture, however, there was no indication of any colored product even when the reaction mixture contained only the inhibitor and not the MPO substrate. To strengthen this finding, thin layer chromatography (TLC) was run with the MPO assay solution and inhibitor (50% ethylacetate:hexane) and spot identification was done in an iodine chamber.

[4] = tested on: human low-density lipoprotein (LDL); experiment: Cu (II) induced LDL oxidation, conjugated diene formation at 234 nm; format: biochemical; settings: 10 and 25 μM compound, 100 μg LDL protein, 5 μM Cu (II), pH 7.4, room temperature (FIG. 6)
Protocol: To determine the effect of the presently-disclosed compounds on low-density lipoprotein (LDL) oxidation, standard LDL oxidation reactions were carried out in the presence of methylenedioxyphenyl ferulate (FMDP; Formula (II)) and ferulylproline (Formula (XVI). Briefly, the in vitro oxidation reaction of LDL was carried out at room temperature in potassium phosphate buffer, pH 7.4. The reaction mixture contained 100 μg LDL protein and 5 μM Cu (II) with a final volume of 1 mL. The oxidation of LDL was followed by measuring the formation of a conjugated diene at 234 nm for a total of 300 min using a spectrophotometer. The time course of Cu (II) induced LDL oxidation was then performed. […] The increase in the oxidation of LDL in presence of 10 μM and 25 μM ferulylproline was attributed to the formation of Cu (II)-ferulylproline complex which would act as a pro-oxidant of LDL. Oxidation of LDL lipid by Cu (II) mediated oxidation both in the absence of any inhibitor and in the presence of 10 μM and 25 μM of methylenedioxyphenyl ferulate and ferulylproline was performed by monitoring the oxidation for 200 minutes.

[5] = Chlorotaurine formation (HOCl-mediated chlorination of taurine, TNB readout at 412 nm); settings: various concentrations, 37° C. for 10 min, absorption 412 nm (FIG. 8)
Protocol: Chlorotaurine is formed by the oxidation of taurine by the chlorinating oxidant hypochlorous acid (HOCl), which is formed by MPO-mediated 2-electron oxidation of chloride by H2O2. To determine if the compounds of the present invention were capable of inhibiting the formation of chlorotaurine, a reaction mixture was produced that contained 50 uL of 150 mM taurine, various concentrations of methylenedioxyphenyl ferulate (Formula (II)) or ferulylproline (Formula (XVI)), and 250 μL of hypochlorous acid in sodium phosphate buffer. The mixture was incubated at 37° C. for 10 min followed by addition of 60 μL of 40 mM thionitrobenzoic acid (TNB). The whole solution was made up to 1.5 mL and absorption was measured at 412 nm using a UV-Visible spectrophotometer. […] Furthermore, although both of these compounds react differently toward chlorotaurine oxidation, they seem to show specificity toward MPO inhibition.

Row | pKi [1] | Inhibition of superoxide mediated cytochrome c reduction [2] | Product formation during the MPO reaction by TLC / MPO substrate behaviour ([3]; MPO assay solution and inhibitor, 50% ethylacetate:hexane, iodine chamber) | Product formation in UV-Visible spectrum between 200 to 700 nm with and without MPO ([3]; sodium acetate buffer, H2O2, MPO enzyme, no MPO substrate (FIGS. 9 and 10)) | Inhibition of MPO activity ([1]; varying concentrations, OD 650 nm (FIGS. 4 and 5)) | SMILES | Effect on Cu (II) induced LDL oxidation [4] | Inhibition of chlorotaurine formation [5]
1 | 5.07 |  |  |  |  | COc1cc(/C=C/C(=O)Oc2ccc3c(c2)OCO3)ccc1O [methylenedioxyphenyl ferulate] |  | 
2 | 5.40 | inhibited the reaction | do not act as an MPO substrate | failed to show any product | significantly inhibited MPO | COc1cc(/C=C/C(=O)N2CCCC2C(=O)O)ccc1O (centres unmarked) [ferulylproline] | acted as a pro-oxidant reducing the lag time | did not cause any inhibition
